Measurements: PubChem BioAssay (NCI)
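Values below derive from 48-hour exposures of cells grown in 96-well plates, with endpoints linearly interpolated between the two concentrations bracketing the appropriate inhibition level. The concentration for full growth arrest is given as TGI.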

Assays:
Assay in all cases: NCI-60 cell line screen, 48 h
[1] = test system: 786-0 renal
[2] = test system: A498 renal
[3] = test system: A549 NSCLC
[4] = test system: ACHN renal
[5] = test system: CAKI-1 renal
[6] = test system: CCRF-CEM leukemia
[7] = test system: COLO 205 colon
[8] = test system: DMS 273 small cell lung
[9] = test system: EKVX NSCLC
[10] = test system: HCC-2998 colon
[11] = test system: HCT-116 colon
[12] = test system: HCT-15 colon
[13] = test system: HL-60(TB) leukemia
[14] = test system: HOP-62 NSCLC
[15] = test system: HOP-92 NSCLC
[16] = test system: HT29 colon
[17] = test system: IGROV1 ovarian
[18] = test system: KM12 colon
[19] = test system: KM20L2 colon
[20] = test system: LOX IMVI melanoma
[21] = test system: LXFL 529 NSCLC
[22] = test system: M14 melanoma
[23] = test system: M19-MEL melanoma
[24] = test system: MALME-3M melanoma
[25] = test system: MOLT-4 leukemia
[26] = test system: NCI-H23 lung
[27] = test system: NCI-H460 lung
[28] = test system: NCI-H522 lung
[29] = test system: OVCAR-3 ovarian
[30] = test system: OVCAR-4 ovarian
[31] = test system: OVCAR-8 ovarian
[32] = test system: RPMI-8226 leukemia
[33] = test system: RXF 393 renal
[34] = test system: SF-268 CNS
[35] = test system: SF-295 CNS
[36] = test system: SF-539 CNS
[37] = test system: SK-MEL-2 melanoma
[38] = test system: SK-MEL-28 melanoma
[39] = test system: SK-MEL-5 melanoma
[40] = test system: SK-OV-3 ovarian
[41] = test system: SN12C renal
[42] = test system: SNB-19 CNS
[43] = test system: SNB-75 CNS
[44] = test system: SNB-78 CNS
[45] = test system: SW-620 colon
[46] = test system: TK-10 renal
[47] = test system: U251 CNS
[48] = test system: UACC-257 melanoma
[49] = test system: UACC-62 melanoma
[50] = test system: UO-31 renal
[51] = test system: DMS 114 small cell lung
[52] = test system: K-562 leukemia
[53] = test system: OVCAR-5 ovarian
[54] = test system: SR leukemia

## CCCCCCCC(=O)OCC1OC(n2cc(F)c(=O)[nH]c2=O)C(N)C(OC(=O)CCCCCCC)C1O (stereo not given)
[1]
  TGI: 33.5 µM
[2]
  TGI: 39.1 µM
[3]
  TGI: 32.3 µM
[4]
  TGI: 37.9 µM
[5]
  TGI: 41.5 µM
[6]
  TGI: 40.4 µM
[7]
  TGI: 34 µM
[8]
  TGI: 30.8 µM
[9]
  TGI: 34 µM
[10]
  TGI: 35.3 µM
[11]
  TGI: 34.6 µM
[12]
  TGI: 34.2 µM
[13]
  TGI: 42.3 µM
[14]
  TGI: 32.5 µM
[15]
  TGI: 34.3 µM
[16]
  TGI: 33.4 µM
[17]
  TGI: 47.7 µM
[18]
  TGI: 42.3 µM
[19]
  TGI: 33.7 µM
[20]
  TGI: 32.5 µM
[21]
  TGI: 30.9 µM
[22]
  TGI: 32.2 µM
[23]
  TGI: 36 µM
[24]
  TGI: 36.9 µM
[25]
  TGI: 33.6 µM
[26]
  TGI: 35.9 µM
[27]
  TGI: 34.8 µM
[28]
  TGI: 28.9 µM
[29]
  TGI: 41.2 µM
[30]
  TGI: 29 µM
[31]
  TGI: 31.6 µM
[32]
  TGI: 53.5 µM
[33]
  TGI: 31.9 µM
[34]
  TGI: 35.4 µM
[35]
  TGI: 31.3 µM
[36]
  TGI: 36.1 µM
[37]
  TGI: 38.5 µM
[38]
  TGI: 34.1 µM
[39]
  TGI: 22.3 µM
[40]
  TGI: 93.8 µM
[41]
  TGI: 32.5 µM
[42]
  TGI: 32 µM
[43]
  TGI: 28.4 µM
[44]
  TGI: 39.5 µM
[45]
  TGI: 33.6 µM
[46]
  TGI: 56.9 µM
[47]
  TGI: 33.6 µM
[48]
  TGI: 33.4 µM
[49]
  TGI: 32.4 µM
[50]
  TGI: 36.6 µM

## CCc1c(O)c(O)c(C(C)=O)c2c(O)c(-c3c(C)cc4c(CC)c(O)c(O)c(C(C)=O)c4c3O)c(C)cc12
[4]
  TGI: 28.8 µM
[6]
  TGI: 8.64 µM
[7]
  TGI: 21.4 µM
[51]
  TGI: 18.4 µM
[11]
  TGI: 14.3 µM
[13]
  TGI: 14.9 µM
[14]
  TGI: 27.4 µM
[15]
  TGI: 10.4 µM
[16]
  TGI: 17.1 µM
[52]
  TGI: 11.3 µM
[18]
  TGI: 11.7 µM
[19]
  TGI: 17.6 µM
[21]
  TGI: 16.5 µM
[22]
  TGI: 21.6 µM
[23]
  TGI: 30.8 µM
[24]
  TGI: 31.5 µM
[26]
  TGI: 16.1 µM
[27]
  TGI: 38.5 µM
[28]
  TGI: 14.8 µM
[29]
  TGI: 18 µM
[30]
  TGI: 26.5 µM
[53]
  TGI: 32.9 µM
[32]
  TGI: 24.2 µM
[34]
  TGI: 37.1 µM
[35]
  TGI: 11 µM
[36]
  TGI: 22.4 µM
[37]
  TGI: 23 µM
[38]
  TGI: 27.2 µM
[43]
  TGI: 30.7 µM
[44]
  TGI: 12.1 µM
[54]
  TGI: > 100 µM
[47]
  TGI: 21.4 µM
[48]
  TGI: 24.3 µM
[49]
  TGI: 24.7 µM
[50]
  TGI: 22.3 µM
